Results as given in patent US9233933B2, “4,4-disubstituted-1,4-dihydropyrimidines and the use thereof as medicaments for the treatment of hepatitis B” (priority 2012, dated 2016).
Counter-ions that a name gives are not always drawn. Like-named read-outs stand apart in the source and are kept apart here.

Legend:
[1] = in vitro; details: human, HepG2 4 days CC50
[2] = test system: HBV; assay: anti HBV activity in HepG2.117 cell line (Tet-off, inducibly HBV producing), intracellular HBV DNA by realtime PCR; format: cell-based, Hepatitis B virus; details: HepG2.117 cells, 3 days of treatment, intracellular HBV DNA, read-out: HepG2 117 EC50
[3] = Cytotoxicity in HepG2 cells using CellTiter-Blue, same incubation period as HepG2.2.15 assay; format: cell-based; details: human
Method: Cytotoxicity of the compounds was tested in HepG2 cells using CellTiter-Blue, with the same incubation period and dose range as in the HepG2.2.15 assay.

[4] = test system: HBV; assay: anti-HBV activity in stable transfected HepG2.2.15 cell line, HBV DNA from secreted virions by realtime PCR; format: cell-based, Hepatitis B virus; details: HepG2.2.15 cells, 6 days of treatment, secreted virion HBV DNA, read-out: HBV-HepG2 2.15 EC50
[5] = Cytotoxicity in HepG2 cells incubated 4 days, Resazurin assay; details: human, HepG2 4 days CC50, HepG2 cells
[6] = Hepatitis B virus, HepG2.117, 72 h
[7] = Hepatitis B virus, HepG2.2.15, 144 h
[8] = HepG2 cells, 6 days, CellTiter-Blue, read-out: HepG2 6 days CC50

Row | SMILES | CC50 at 4 days [1] [µM] | EC50 [2, 6] [µM] | CC50 at 6 days ([3]; HepG2 6 days CC50) [µM] | EC50 [4, 7] [µM] | EC50 [2] [µM] | EC50 [4] [µM] | CC50 at 4 days [5] [µM] | CC50 at 6 days [3, 8] [µM]
1 | COC(=O)C1=C(CN2CCOCC2)NC(c2ccccn2)=NC12c1ccccc1OC2(F)F (centres unmarked) [Compound 124] | > 25 | 2.41 | 48.4 | 13 |  |  |  | 
2 | COC(=O)C1=C(CN2CCOCC2)NC(c2ccccn2)=NC12C=Cc1cc(F)ccc12 (centres unmarked) [Compound 145] | > 25 | 0.62 |  | 0.36 |  |  |  | 
3 | COC(=O)C1=C(CN2CCOCC2)NC(c2ccccn2)=NC12c1ccc(F)cc1C(F)C2(F)F (single isomer, unassigned) [Compound 168A] | > 25 |  |  | 9.64 | 3.51 |  |  | 
4 | COC(=O)C1=C(CN2CCOCC2)NC(c2ccccn2)=NC12CCc1c(F)cccc12 (single isomer, unassigned) [Compound 66a] | > 100 |  | > 100 |  | 0.066 | < 0.391 |  | 
5 | COC(=O)C1=C(C)NC(c2ncc(F)cc2F)=NC12CCCc1cc(F)ccc12 (centres unmarked) [Compound 80] | > 50 | 25.1 | 51.1 |  |  |  |  | 
6 | COC(=O)C1=C(CN2CCOCC2)NC(c2ccccn2)=NC12CCCc1cc(F)ccc12 (centres unmarked) [Compound 74] | > 100 | 1.33 | 78.3 | 2.06 |  |  |  | 
7 | COC(=O)C1=C(C)NC(c2nccs2)=NC12C(F)=Cc1c2ccc(F)c1F (racemic) [Compound 174] | > 25 | 13.4 |  |  |  |  |  | 
8 | COC(=O)C1=C(CN2CCOCC2)NC(c2ccccn2)=NC12CCC(C)(C)c1ccccc12 (centres unmarked) [Compound 72] | > 100 | 72 | 71.1 | 54 |  |  |  | 
9 | COC(=O)C1=C(CN2CCOCC2)NC(c2ccccn2)=NC12CC(=O)c1cc(F)ccc12 (centres unmarked) [139 •TFA] | > 25 | 0.707 |  | 0.99 |  |  |  | 
10 | COC(=O)C1=C(C)NC(c2ncc(F)cc2F)=NC12C(=O)N(C)c1cc(F)ccc12 (centres unmarked) [Compound 118] | > 50 | > 50 | > 100 | 40.7 |  |  |  | 
11 | COC(=O)C1=C(C)NC(c2ncc(F)cc2F)=NC12C(=O)Nc1cc(F)ccc12 (centres unmarked) [Compound 123] | > 25 | > 25 |  | > 100 |  |  |  | 
12 | COC(=O)C1=C(C)NC(c2ncc(F)cc2F)=NC12c1ccccc1OC2(F)F (single isomer, unassigned) [Compound 106a] | > 50 | > 50 | > 100 |  |  | > 100 |  | 
13 | COC(=O)C1=C(CN2CCOCC2)NC(c2ccccn2)=N[C@@]12c1ccc(F)cc1C[C@H]2F (racemic) [Compound 175] | > 25 | 0.146 |  | < 0.195 |  |  |  | 
14 | COC(=O)C1=C(C)NC(c2ncc(F)cc2F)=NC12c1ccccc1CC2(F)F (centres unmarked) [Compound 115] | > 25 | > 25 | > 100 | > 100 |  |  |  | 
15 | COC(=O)C1=C(CN2CCOCC2)NC(c2ncc(F)cc2F)=NC12CCc1c2ccc(F)c1F (centres unmarked) [Compound 101] | > 50 | 0.073 | > 25 | < 0.098 |  |  |  | 
16 | COC(=O)C1=C(CN2CCOCC2)NC(c2ccccn2)=NC12CCc1cc(F)ccc12 (centres unmarked) [Compound 143] | > 25 | 0.222 |  |  |  |  |  | 
17 | CCOC(=O)C1=C(CN2CCOCC2)NC(c2ccccn2)=NC12CCCc1ccc(F)cc12 (centres unmarked) [Compound 59] | > 100 | 46.7 | 68.9 | 59.5 |  |  |  | 
18 | CCOC(=O)C1=C(CN2CCOCC2)NC(c2ccccn2)=NC12CCc1cc(F)ccc12 (centres unmarked) [Compound 39] | > 100 | 0.41 | 62.9 | 0.405 |  |  |  | 
19 | COC(=O)C1=C(CN2CCOCC2)NC(c2ccccn2)=NC12CCc1ccc(F)cc12 (centres unmarked) [Compound 96] | 97 | 0.94 | > 100 | 0.954 |  |  |  | 
20 | COC(=O)C1=C(C)NC(c2ccccn2)=NC12CCc1ccccc12 (centres unmarked) [Compound 90] | > 50 | 22.7 | > 50 | 5.82 |  |  |  | 
21 | COC(=O)C1=C(C)NC(c2ncc(F)cc2F)=NC12CCc1c2ccc(F)c1F (centres unmarked) [Compound 100] | > 100 | 0.506 | > 100 | 0.546 |  |  |  | 
22 | COC(=O)C1=C(CN2CCOCC2)NC(c2ncc(F)cc2F)=NC12CC(C)(C)c1ccccc12 (centres unmarked) [Compound 93] | > 100 | 81.2 | 41.5 | 53.4 |  |  |  | 
23 | COC(=O)C1=C(C)NC(c2ccccn2)=NC12CCOc1ccccc12 (centres unmarked) [Compound 85] | > 50 | > 50 | > 100 | > 100 |  |  |  | 

Row | SMILES | CC50 at 4 days [1] [µM] | EC50 [2, 6] [µM] | CC50 at 6 days ([3]; HepG2 6 days CC50) [µM] | EC50 [4, 7] [µM] | EC50 [2] [µM] | EC50 [4] [µM] | CC50 at 4 days [5] [µM] | CC50 at 6 days [3, 8] [µM]
24 | COC(=O)C1=C(CN2CCOCC2)NC(c2ccccn2)=NC12c1ccccc1CC2(F)F (centres unmarked) [Compound 110] | > 50 | 6.14 | > 100 | 10.7 |  |  |  | 
25 | COC(=O)C1=C(C)NC(c2nccs2)=NC12C(F)=C(F)c1cc(F)ccc12 (racemic) [Compound 166] | > 25 | 14.2 |  | 0.24 |  |  |  | 
26 | COC(=O)C1=C(C)NC(c2ccccn2)=NC12c1ccccc1CC2(F)F (centres unmarked) [Compound 111] | > 50 | > 50 | > 100 | 81.8 |  |  |  | 
27 | COC(=O)C1=C(CN2CCOCC2)NC(c2ccccn2)=NC12CCc1ccc(F)cc12 (single isomer, unassigned) [Compound 96a] | > 100 |  | > 100 |  | 0.3 | 0.65 |  | 
28 | COC(=O)C1=C(C)NC(c2nccs2)=NC12C(F)=C(F)c1cc(F)ccc12 (single isomer, unassigned) [Compound 166a] | > 25 | > 25 |  |  |  | > 50 |  | 
29 | CC1(C)CCC2(N=C(c3ccccn3)NC(CN3CCOCC3)=C2C#N)c2ccccc21 (centres unmarked) [Compound 57] |  | > 25 |  | > 100 |  |  | > 25 | 87.4
30 | COC(=O)C1=C(CN2CCOCC2)NC(c2ccccn2)=NC12CCOc1ccccc12 (centres unmarked) [Compound 86] | > 100 | 5.49 | > 100 | 8.64 |  |  |  | 
31 | N#CC1=C(CN2CCOCC2)NC(c2ccccn2)=NC12CCCc1cc(F)ccc12 (racemic) [Compound 60] |  | 2.5 |  | 2.83 |  |  | > 25 | > 100
32 | COC(=O)C1=C(CN2CCOCC2)NC(c2ccccn2)=NC12C(F)=C(F)c1cc(F)ccc12 (centres unmarked) [Compound 169] | > 25 | 0.137 |  |  |  |  |  | 
33 | CCOC(=O)C1=C(CN2CCOCC2)NC(c2ccccn2)=NC12CCC(C)(C)c1ccccc12 (centres unmarked) [Compound 56] | > 100 | 52.6 | 36.4 | 35.2 |  |  |  | 
34 | COC(=O)C1=C(CN2CCOCC2)NC(c2ccccn2)=NC1(C)c1cccc(F)c1 (centres unmarked) [Compound 30] |  | 0.29 |  | 0.941 |  |  | > 25 | > 100
35 | CCOC(=O)C1=C(CN2CCOCC2)NC(c2ncc(F)cc2F)=NC1(C)c1ccc(F)cc1 (centres unmarked) [Compound 24] |  | 0.16 |  | 0.319 |  |  | > 25 | 37.9
36 | COC(=O)C1=C(CN2CCOCC2)NC(c2ccccn2)=NC12C(F)=Cc1ccccc12 (centres unmarked) [Compound 112] | > 50 | 0.41 | > 100 | 0.624 |  |  |  | 
37 | COC(=O)C1=C(CN2CCOCC2)NC(c2ccccn2)=NC12CCc1ccccc12 (centres unmarked) [Compound 89] | > 100 | 0.47 | > 100 | 0.604 |  |  |  | 
38 | COC(=O)C1=C(CN2CCOCC2)NC(c2ccccn2)=NC12CCc1c(F)cccc12 (racemic) [Compound 66] | > 25 | 0.17 | 89.3 | 0.207 |  |  |  | 
39 | COC(=O)C1=C(CN2CCOCC2)NC(c2ccccn2)=NC12CC(C)c1cc(F)ccc12 (centres unmarked) [Compound 146] | > 25 | 2.62 |  | 1.36 |  |  |  | 
40 | CCOC(=O)C1=C(CN2CCOCC2)NC(c2ccccn2)=NC1(C)c1ccc(F)cc1F (centres unmarked) [Compound 42] |  | 1.29 |  | 3.07 |  |  | > 50 | 57.7
41 | COC(=O)C1=C(CN2CCOCC2)NC(c2ccccn2)=NC12CC(O)c1cc(F)ccc12 (centres unmarked) [Compound 144] | > 10 | 4.94 |  |  |  |  |  | 
42 | COC(=O)C1=C(C)NC(c2nccs2)=NC12C(F)=Cc1c2ccc(F)c1F (single isomer, unassigned) [Compound 174a] | > 25 |  |  |  | 8.97 |  |  | 
43 | COC(=O)C1=C(C)NC(c2ncc(F)cc2F)=NC12CC(C)(C)c1ccccc12 (single isomer, unassigned) [Compound 134a] | > 50 | > 50 | 53 |  |  | 91.2 |  | 
44 | COC(=O)C1=C(C)NC(c2ncc(F)cc2F)=NC12c1ccccc1OC2(F)F (centres unmarked) [Compound 106] | > 25 | > 25 | > 100 | 98.4 |  |  |  | 
45 | COC(=O)C1=C(CN2CCOCC2)NC(c2ncc(F)cc2F)=NC1(C)c1cc(F)cc(Cl)c1 (centres unmarked) [Compound 27] |  | 0.63 |  | 1.83 |  |  | > 25 | > 100
